# Active and inactive are the calls of the source. The calls are words filed in the database; no cut-off is given here.
# Legend:
# A549 [1] = test: cells; conditions: Homo sapiens, A549, 48 h
# Description: Cytotoxicity against human A549 cells after 48 hrs by MTT assay
# DU-145 = test: Cytotoxicity against human DU145 cells after 48 hrs by MTT assay; assay type: functional, cell-based; conditions: DU-145, 48 h
# MCF7 = test: cells; conditions: Homo sapiens, MCF7, 48 h
# Description: Cytotoxicity against human MCF7 cells after 48 hrs by MTT assay
# HeLa = test: cells; conditions: Homo sapiens, 48 h
# Description: Cytotoxicity against human HeLa cells after 48 hrs by MTT assay
# Tubulin (Homo sapiens) = Tubulin (Homo sapiens) (UniProt P68371+Q9H4B7+P0DPH7+P68366+Q13509+Q71U36+P04350+Q3ZCM7+P07437+P68363+Q9BQE3+Q6PEY2+Q13885+Q9BVA1+Q9BUF5); test: Inhibition of tubulin polymerization (unknown origin) at 3 uM after 1 hr by fluorescence assay relative to control; assay type: protein-complex assay
# A549 [2] = test: Cell cycle arrest in human A549 cells assessed as accumulation at S phase at 1 uM after 48 hrs by propidium iodide staining based flow cytometry (reference value: 1.92%); assay type: functional
# A549 [3] = test: Disruption of microtubule organization in human A549 cells at 0.5 uM after 48 hrs by fluorescence microscopic analysis; assay type: cell-based
# A549 [4] = test: Cell cycle arrest in human A549 cells assessed as accumulation at G2/M phase at 0.5 uM after 48 hrs by propidium iodide staining based flow cytometry (reference value: 7.4%); assay type: functional
# A549 [5] = test: Cell cycle arrest in human A549 cells assessed as accumulation at sub-G1 phase at 0.5 uM after 48 hrs by propidium iodide staining based flow cytometry (reference value: 1.11%); assay type: functional
# A549 [6] = test: Induction of apoptosis in human A549 cells assessed as nuclear fragmentation at 0.5 uM after 48 hrs by Hoechst 33258 staining based fluorescence microscopic analysis; assay type: functional, cell-based
# A549 [7] = test: Cell cycle arrest in human A549 cells assessed as accumulation at G0/G1 phase at 1 uM after 48 hrs by propidium iodide staining based flow cytometry (reference value: 90.52%); assay type: functional
# A549 [8] = test: Cell cycle arrest in human A549 cells assessed as accumulation at sub-G1 phase at 1 uM after 48 hrs by propidium iodide staining based flow cytometry (reference value: 1.11%); assay type: functional
# A549 [9] = test: Induction of apoptosis in human A549 cells assessed as formation of apoptotic bodies at 0.5 uM after 48 hrs by Hoechst 33258 staining based fluorescence microscopic analysis; assay type: functional, cell-based
# A549 [10] = test: Induction of mitochondrial membrane potential loss in human A549 cells assessed as collapse of the mitochondrial membrane potential at 1 uM after 48 hrs by JC1 staining based flow cytomtery (reference value: 3.5%); assay type: functional
# A549 [11] = test: Induction of apoptosis in human A549 cells assessed as late apoptotic cells at 0.5 uM after 48 hrs by Annexin V-FITC/propidium iodide staining based flow cytometry (reference value: 3.83%); assay type: functional
# A549 [12] = test: Induction of apoptosis in human A549 cells assessed as necrotic cells at 0.5 uM after 48 hrs by Annexin V-FITC/propidium iodide staining based flow cytometry (reference value: 1.17%); assay type: functional
# A549 [13] = test: Induction of apoptosis in human A549 cells assessed as cytoplasmic condensation at 0.5 uM after 48 hrs by Hoechst 33258 staining based fluorescence microscopic analysis; assay type: functional, cell-based
# A549 [14] = test: Induction of apoptosis in human A549 cells assessed as necrotic cells at 1 uM after 48 hrs by Annexin V-FITC/propidium iodide staining based flow cytometry (reference value: 1.17%); assay type: functional
# A549 [15] = test: Cell cycle arrest in human A549 cells assessed as accumulation at G0/G1 phase at 0.5 uM after 48 hrs by propidium iodide staining based flow cytometry (reference value: 90.52%); assay type: functional
# A549 [16] = test: Induction of apoptosis in human A549 cells assessed as live cells at 0.5 uM after 48 hrs by Annexin V-FITC/propidium iodide staining based flow cytometry (reference value: 93.97%); assay type: functional
# A549 [17] = test: Cell cycle arrest in human A549 cells assessed as accumulation at S phase at 0.5 uM after 48 hrs by propidium iodide staining based flow cytometry (reference value: 1.92%); assay type: functional
# A549 [18] = test: Induction of apoptosis in human A549 cells assessed as early apoptotic cells at 0.5 uM after 48 hrs by Annexin V-FITC/propidium iodide staining based flow cytometry (reference value: 1.03%); assay type: functional
# A549 [19] = test: Induction of mitochondrial membrane potential loss in human A549 cells assessed as intact mitochondrial membrane at 1 uM after 48 hrs by JC1 staining based flow cytomtery (reference value: 96.3%); assay type: functional
# A549 [20] = test: Induction of apoptosis in human A549 cells assessed as late apoptotic cells at 1 uM after 48 hrs by Annexin V-FITC/propidium iodide staining based flow cytometry (reference value: 3.83%); assay type: functional
# A549 [21] = test: Induction of mitochondrial membrane potential loss in human A549 cells assessed as collapse of the mitochondrial membrane potential at 0.5 uM after 48 hrs by JC1 staining based flow cytomtery (reference value: 3.5%); assay type: functional
# A549 [22] = test: Induction of apoptosis in human A549 cells assessed as early apoptotic cells at 1 uM after 48 hrs by Annexin V-FITC/propidium iodide staining based flow cytometry (reference value: 1.03%); assay type: functional
# A549 [23] = test: Induction of mitochondrial membrane potential loss in human A549 cells assessed as intact mitochondrial membrane at 0.5 uM after 48 hrs by JC1 staining based flow cytomtery (reference value: 96.3%); assay type: functional
# A549 [24] = test: Cell cycle arrest in human A549 cells assessed as accumulation at G2/M phase at 1 uM after 48 hrs by propidium iodide staining based flow cytometry (reference value: 7.4%); assay type: functional
# A549 [25] = test: Induction of apoptosis in human A549 cells assessed as live cells at 1 uM after 48 hrs by Annexin V-FITC/propidium iodide staining based flow cytometry (reference value: 93.97%); assay type: functional
# Tubulin = test: Inhibition of tubulin polymerization (unknown origin) after 1 hr by fluorescence assay; assay type: protein-complex assay, Homo sapiens
smiles,measurement,setting,value
COc1cc(N/C=C\C(=O)c2c(-c3ccccc3)nc3ccccn23)cc(OC)c1,IC50,A549 [1],2240 nM
same,IC50,DU-145,2.92 µM
same,IC50,MCF7,10.2 µM
same,IC50,HeLa,3.09 µM
COc1ccc(N/C=C\C(=O)c2c(-c3ccccc3)nc3ccccn23)cc1,IC50,A549 [1],1570 nM
same,IC50,DU-145,2.19 µM
same,IC50,MCF7,7.61 µM
same,IC50,HeLa,14.9 µM
O=C(/C=C\Nc1cnc2ccccc2c1)c1c(-c2ccccc2)nc2ccccn12,IC50,A549 [1],1750 nM
same,IC50,DU-145,2.44 µM
same,IC50,MCF7,5.17 µM
same,IC50,HeLa,3.08 µM
O=C(/C=C\Nc1cnc2ccccc2c1)c1c(-c2ccc(Cl)cc2)nc2ccccn12,IC50,A549 [1],2880 nM
same,IC50,DU-145,4.17 µM
same,IC50,MCF7,18.9 µM
same,IC50,HeLa,3.71 µM
COc1ccc(-c2nc3ccccn3c2C(=O)/C=C\Nc2ccc(F)cc2)cc1,IC50,A549 [1],3250 nM
same,IC50,DU-145,6.13 µM
same,IC50,MCF7,13 µM
same,IC50,HeLa,11 µM
COc1cc(N/C=C\C(=O)c2c(-c3ccc(Cl)cc3)nc3ccccn23)cc(OC)c1,IC50,A549 [1],9900 nM
same,IC50,DU-145,12 µM
same,IC50,MCF7,13.6 µM
same,IC50,HeLa,14.6 µM
COc1ccc(-c2nc3ccccn3c2C(=O)/C=C\Nc2ccc3cc[nH]c3c2)cc1,IC50,A549 [1],8800 nM
same,IC50,DU-145,10.7 µM
same,IC50,MCF7,19.4 µM
same,IC50,HeLa,15.3 µM
O=C(/C=C\Nc1ccc(Br)cc1)c1c(-c2ccc(Cl)cc2)nc2ccccn12,inhibition,Tubulin (Homo sapiens),66.5%
same,Activity,A549 [2],5.62%
same,Activity,A549 [3],Active
same,Activity,A549 [4],14.4%
same,Activity,A549 [5],0.66%
same,Activity,A549 [6],Active
same,IC50,A549 [1],933 nM
same,Activity,A549 [7],65.94%
same,Activity,A549 [8],0.86%
same,IC50,DU-145,1.5 µM
same,Activity,A549 [9],Active
same,Activity,A549 [10],30.1%
same,Activity,A549 [11],9.9 - 9.94%
same,Activity,A549 [12],1.6 - 1.64%
same,Activity,A549 [13],Active
same,Activity,A549 [14],1.38 - 1.4%
same,Activity,A549 [15],83.28%
same,Activity,A549 [16],66.5 - 66.51%
same,Activity,A549 [17],2.68%
same,Activity,A549 [18],21.9 - 21.91%
same,Activity,A549 [19],63.9%
same,Activity,A549 [20],18.06 - 18.1%
same,Activity,A549 [21],20.3%
same,IC50,MCF7,2.69 µM
same,Activity,A549 [22],33.97 - 34%
same,Activity,A549 [23],75.9%
same,Activity,A549 [24],29.84%
same,IC50,HeLa,1.48 µM
same,Activity,A549 [25],46.59 - 46.6%
same,IC50,Tubulin,1930 nM
COc1ccc(N/C=C\C(=O)c2c(-c3ccc(OC)cc3)nc3ccccn23)cc1,IC50,A549 [1],12600 nM
same,IC50,DU-145,11.1 µM
same,IC50,MCF7,16.5 µM
same,IC50,HeLa,19.9 µM
COc1ccc(-c2nc3ccccn3c2C(=O)/C=C\Nc2ccc3ncccc3c2)cc1,IC50,A549 [1],1210 nM
same,IC50,DU-145,4.72 µM
same,IC50,MCF7,11.6 µM
same,IC50,HeLa,4.85 µM
O=C(/C=C\Nc1ccc2cc[nH]c2c1)c1c(-c2ccc(Cl)cc2)nc2ccccn12,IC50,A549 [1],2290 nM
same,IC50,DU-145,2.63 µM
same,IC50,MCF7,9.6 µM
same,IC50,HeLa,10.9 µM
COc1ccc(-c2nc3ccccn3c2C(=O)/C=C\Nc2ccc3[nH]ccc3c2)cc1,IC50,A549 [1],11000 nM
same,IC50,DU-145,11.3 µM
same,IC50,MCF7,18.9 µM
same,IC50,HeLa,13.6 µM
O=C(/C=C\Nc1ccc2ncccc2c1)c1c(-c2ccc(Cl)cc2)nc2ccccn12,IC50,A549 [1],13000 nM
same,IC50,DU-145,13.6 µM
same,IC50,MCF7,22.8 µM
same,IC50,HeLa,16.4 µM
COc1ccc(-c2nc3ccccn3c2C(=O)/C=C\Nc2cc(OC)cc(OC)c2)cc1,IC50,A549 [1],4470 nM
same,IC50,DU-145,6.26 µM
same,IC50,MCF7,14.9 µM
same,IC50,HeLa,4.57 µM
O=C(/C=C\Nc1ccc2ncccc2c1)c1c(-c2ccccc2)nc2ccccn12,inhibition,Tubulin (Homo sapiens),68.2%
same,Activity,A549 [2],4.28%
same,Activity,A549 [3],Active
same,Activity,A549 [4],15.69%
same,Activity,A549 [5],0.5%
same,Activity,A549 [6],Active
same,IC50,A549 [1],861 nM
same,Activity,A549 [7],66.32%
same,Activity,A549 [8],0.91%
same,IC50,DU-145,1.08 µM
same,Activity,A549 [9],Active
same,Activity,A549 [10],31.7%
same,Activity,A549 [11],11.35 - 11.4%
same,Activity,A549 [12],0.75 - 0.8%
same,Activity,A549 [13],Active
same,Activity,A549 [14],1.07 - 1.1%
same,Activity,A549 [15],82.37%
same,Activity,A549 [16],64.98 - 65%
same,Activity,A549 [17],2.77%
same,Activity,A549 [18],22.9 - 22.92%
same,Activity,A549 [19],60.8%
same,Activity,A549 [20],18.5 - 18.52%
same,Activity,A549 [21],22.5%
same,IC50,MCF7,1.81 µM
same,Activity,A549 [22],34.99 - 35%
same,Activity,A549 [23],73.5%
same,Activity,A549 [24],30.5%
same,IC50,HeLa,1.22 µM
same,Activity,A549 [25],45.4 - 45.42%
same,IC50,Tubulin,1820 nM
COc1ccc(-c2nc3ccccn3c2C(=O)/C=C\Nc2ccc(Br)cc2)cc1,IC50,A549 [1],1350 nM
same,IC50,DU-145,1.45 µM
same,IC50,MCF7,9.83 µM
same,IC50,HeLa,4.54 µM
COc1ccc(N/C=C\C(=O)c2c(-c3ccc(Cl)cc3)nc3ccccn23)cc1,IC50,A549 [1],6460 nM
same,IC50,DU-145,10.8 µM
same,IC50,MCF7,16.3 µM
same,IC50,HeLa,11.8 µM
O=C(/C=C\Nc1ccc2[nH]ccc2c1)c1c(-c2ccc(Cl)cc2)nc2ccccn12,IC50,A549 [1],1010 nM
same,IC50,DU-145,1.29 µM
same,IC50,MCF7,7.12 µM
same,IC50,HeLa,3.24 µM
COc1ccc(-c2nc3ccccn3c2C(=O)/C=C\Nc2cnc3ccccc3c2)cc1,IC50,A549 [1],1050 nM
same,IC50,DU-145,5.28 µM
same,IC50,MCF7,15 µM
same,IC50,HeLa,9.44 µM
COc1cc(N/C=C\C(=O)c2c(-c3ccc(Cl)cc3)nc3ccccn23)cc(OC)c1OC,IC50,A549 [1],1140 nM
same,IC50,DU-145,3.25 µM
same,IC50,MCF7,3.39 µM
same,IC50,HeLa,3.02 µM
COC(=O)Nc1nc2cc(C(=O)c3cccs3)ccc2[nH]1 [NOCODAZOLE],inhibition,Tubulin (Homo sapiens),66.8%
same,Activity,A549 [2],4.55%
same,Activity,A549 [3],Active
same,IC50,A549 [1],1390 nM
same,Activity,A549 [7],66.92%
same,Activity,A549 [8],0.79%
same,IC50,DU-145,1.26 µM
same,Activity,A549 [10],22.6%
same,Activity,A549 [14],1.1 - 1.11%
same,Activity,A549 [19],73.5%
same,Activity,A549 [20],16.2 - 16.23%
same,IC50,MCF7,1.09 µM
same,Activity,A549 [22],31.19 - 31.2%
same,Activity,A549 [24],29.68%
same,IC50,HeLa,1.61 µM
same,Activity,A549 [25],51.48 - 51.5%
O=C(/C=C\Nc1ccc(Br)cc1)c1c(-c2ccccc2)nc2ccccn12,IC50,A549 [1],1350 nM
same,IC50,DU-145,1.82 µM
same,IC50,MCF7,8.67 µM
same,IC50,HeLa,2.04 µM
